Marks after values point to notes of the source that are not given here.
System: normal human keratinocytes
Assay: Hyaluronic acid production by normal human keratinocytes (HA-ELISA of supernatant)
Type: cell-based
Settings: for % stimulation of hyaluronic acid synthesis: vs Control
Protocol: Normal human keratinocytes were cultured to confluence. Cells were treated with the test products for 48 hours. The supernatants, containing hyaluronic acid, were collected and assayed immediately. Hyaluronic acid was quantified with an ELISA microtiter plate.
Primocultures of normal human keratinocytes (NHK) were obtained from cells isolated from skin specimens from plastic surgery.
NHK were seeded at a density of 130,000 cells/well in specific KSFM culture medium (Gibco®, Invitrogen) in a 24-well plate. The plate was placed in a humid incubator (37° C., 5% CO2) for 24 hours.
The different products at the respective concentrations (diluted in KSFM medium, 600 μl) were contacted with the cells for 48 hours. Untreated cells were used as the control condition.
Each treatment condition was evaluated on three wells of NHK cells.
After 24 hours of treatment, an intermediate sample of […] of supernatant was removed from each well and the plate returned to the incubator (37° C., 5% CO2).
After 48 hours of treatment, the remaining supernatant (≈350 μA) was collected and centrifuged.
Cell supernatants were assayed according to the method described in the Hyaluronan Enzyme-Linked Immunosorbent Assay kit (HA-ELISA, Echelon Biosciences Inc.). This is an ELISA assay with spectrophotometric detection at 405 nm (Safire, Tecan).
The assay was performed in duplicate for each well.
Optical densities (OD) measured on each sample were plotted on a graph (specific standard curve in the kit). The hyaluronic acid concentration was expressed in ng/ml.
The amount of hyaluronic acid released by the cells was determined for each well and for each treatment condition, relative to the cell content expressed as μg of protein. Thus, the final result was expressed as ng/ml of hyaluronic acid per μg of protein.
A mean value was calculated for wells treated with the same concentration of test product. This mean was compared with the mean of the control wells (Student t test−comparison of means−significant difference at 95% if p<0.05* and at 99% if p<0.01*).
The percent stimulation induced by the test products was determined by comparing the mean values of the control and treatment conditions: % Stimulation=(Treated−Control)/Control
The vitamin A propionate was dissolved in DMSO.

CC(=O)N[C@H]1C(O)O[C@H](COP(=O)(O)O)[C@@H](O)[C@@H]1O (some centres unmarked) [NAG6P, N-acetylglucosamine-6-phosphate]
Hyaluronic acid (5 mM, 48 hrs): 1817.9 ± 145.1 ng/mL | Hyaluronic acid (ng/ml/μg prot.) (5 mM, 48 hrs): 122.1 ± 25.6 ng/ml/μg prot. | % stimulation of hyaluronic acid synthesis (5 mM, 48 hrs): 73%* | Hyaluronic acid (10 mM, 24 hrs): 1067.3 ± 111.9 ng/mL | % stimulation of hyaluronic acid synthesis (10 mM, 24 hrs): 35%* | % stimulation of hyaluronic acid synthesis (10 mM, 24 hrs, listed as N-acetylglucosamine-6-phosphate): 35% | Hyaluronic acid (10 mM, 48 hrs): 2503.2 ± 552.8 ng/mL | Hyaluronic acid (ng/ml/μg prot.) (10 mM, 48 hrs): 165.7 ± 32.4 ng/ml/μg prot. | % stimulation of hyaluronic acid synthesis (10 mM, 48 hrs): 135%** | % stimulation of hyaluronic acid synthesis (10 mM, 48 hrs, listed as N-acetylglucosamine-6-phosphate): 135% | Hyaluronic acid (20 mM, 48 hrs): 3076 ± 260.8 ng/mL | Hyaluronic acid (ng/ml/μg prot.) (20 mM, 48 hrs): 269.6 ± 55.3 ng/ml/μg prot. | % stimulation of hyaluronic acid synthesis (20 mM, 48 hrs): 282%** | % stimulation of hyaluronic acid synthesis (20 mM, 48 hrs, listed as N-acetylglucosamine-6-phosphate): 282%
